Entries after “also recorded” stand apart in the source; their conditions may differ.
Assays:
[1] = tested on: medial prefrontal cortex neurons; assay: In vivo single unit recordings from medial prefrontal cortex during natural sleep, spike rate and population coupling; parameters: species or system mouse; details: 5 mg/kg body weight i.p.; versus PBS; normalized to baseline; FIG. 9B
Experimental: C57BL/6J mice aged 10-11 weeks were anesthetized with isofluorane (induction: 3%, maintenance approximately 1.5%). Buprenorphin (0.05-0.1 mg/kg body weight) and Carprofen (4-5 mg/kg body weight) were injected for analgesia. During implantation, the body temperature was maintained with a heating pad. The skin was incised from the cerebellum to the nose and the bone cleaned with 3% H2O2. Ground and reference screws (1 mm diameter) were inserted anterior to the lambdoid suture. A third stabilizing screw was inserted on the left parietal bone. […]
After habituation to the recording room for several days, single-unit recordings were performed at a sampling frequency of 30 kHz using a 32-channel amplifier (Intan Technologies). […] First, a baseline was recorded during sleep identified as epochs when mice were completely immobile in their home cage and slow wave activity could be seen in the PFC local field potential. […]
Recording sections containing artefacts were manually identified and removed. […] Firing rates were estimated from the total number of spikes during the analyzed behavioral episodes divided by the duration. To quantify population synchrony, we utilized a metric that compares the rate change of a given unit to the normalized population rate at each time point. […]

[2] = tested on: Layer 2/3 pyramidal cells of the infralimbic or prelimbic mPFC; assay: Whole-cell patch-clamp recordings of spontaneous EPSCs and IPSCs in acute prefrontal brain slices; assay type: cell-based, mouse; details: pre-incubation with 10 μM
Experimental: Mice were injected intraperitoneally with ketamine/xylazine (100/13 mg/kg body weight) and intracardially perfused with ice-cold solution containing (in mM) NaCl 87, NaHCO325, KCl 2.5, NaH2PO4 1.25, glucose 10, sucrose 75, CaCl2 0.5 and MgCl2 7 (aerated with 95% O2/5% CO2). 300 μm thick frontal sections of the PFC were prepared with a vibratome and stored in artificial cerebrospinal fluid (ACSF) containing in mM: NaCl 125, NaHCO3 25, KCl 2.5, NaH2PO4 1.25, Glucose 25, CaCl2 2 and MgCl2 1 (equillibrated with 95% O2/5% CO2) first at 34° C. for 30 min, then at room temperature. Patch-clamp recordings were targeted to pyramidal neurons identified by their characteristic soma shape using pipettes pulled from borosilicate glass tubing and filled with a Cs-based pipette solution containing (in mM): CsCl 20, MgCl2 2, Na2ATP 2, QX-314 1, Hepes 10, TEACl 8, Cs-Gluconate 110. Recordings were performed at 30 to 34° C. using an Axopatch Multiclamp amplifier in voltage clamp mode. To isolate spontaneous excitatory postsynaptic currents (EPSCs), the resting membrane potential was held at −70 mV (the reversal potential of inhibitory postsynaptic currents (IPSCs). To record spontaneous IPSCs, the cell was held at 0 mV (the reversal potential of EPSCs). Both IPSCs and EPSCs were recorded from the same neurons in slices pre-incubated in 10 μM 6-valerobetaine or in control slices kept in ACSF. Spontaneous events were identified visually from lowpass-filtered data (<1 kHz). Amplitudes were measured from average events.

C[N+](C)(C)CCCCC(=O)[O-] [NNN-trimethyl-5-aminovalerate, 5-(trimethylammonio) pentanoate]
average spike frequency (spike firing rate) [1]: No effect; also recorded: no change
population coupling [1]: significant increase
amplitude of spontaneous EPSCs [2]: unaltered; also recorded: no significant effect
amplitude of spontaneous IPSCs [2]: not the amplitude; also recorded: no significant effect
frequency of spontaneous EPSCs [2]: unaltered
frequency of spontaneous IPSCs [2]: increased

— patent publication US20260276656A1, “GUT MICROBIOTA-RELATED METHODS FOR TREATING DEMENTIA AND AGE-DEPENDENT COGNITIVE DECLINE” (Albert-Ludwigs-Universitat Freiburg, priority 2019, published 2026)
